The numbers were not newly measured in patent US20140088058A1 (PARTHENOGEN SAGL, priority 2011, published 2014), which cites them from elsewhere.

The subject of data set [1] is infarct formation.
In data set [2] the test system is gonadotrophin surge, oocytes collected. Conditions: 40 mg oral route since early days of FSH administration.
In data set [3] the test system is FSH and LH plasma concentration.
For data set [4], the system named is LH surge.

With `NC(=O)c1ccc[n+]([C@@H]2O[C@H](COP(=O)([O-])OP(=O)(O)OC[C@H]3O[C@@H](n4cnc5c(N)ncnc54)[C@H](O)[C@@H]3O)[C@@H](O)[C@H]2O)c1` [NAD+], in data set [1] (given by injection), the “effect following rat brain ischemia” value is on record as “ineffective”. Moreover, the “reduction of infarct formation” value in data set [1] (nasal route, rat brain ischemia) was 90%.
For `CC#C[C@]1(O)CC[C@H]2[C@@H]3CCC4=CC(=O)CCC4=C3[C@@H](c3ccc(N(C)C)cc3)C[C@@]21C` [mifepristone, 17β-hydroxyl-11β-(4-dimethyl-aminophenyl-1)-17α-(prop-1-ynyl)-estra-4,9-diene-3-one], in data set [2], the gonadotrophin surge entry is given as “did not have a gonadotrophin surge”. Moreover, the “effect on FSH and LH plasma concentration” value in data set [3] (10 or 100 mg per os) was “reduction”. The “solubility in dimethyl sulfoxide (DMSO)” value (DMSO) is on record as “more than 20 mg/ml”. The solubility in ethanol result (ethanol) is recorded as “more than 20 mg/ml”. In addition, the “circulating levels of FSH and LH” value in data set [4] (1 mg per os for 5 days, from dominant follicle 14-16 mm) was “remained flat”. The “LH surge timing versus placebo” value in data set [4] (1 mg per os for 5 days, placebo surge within 1 to 3 days) is “delayed in all treated women”.
With `CC(=O)[C@H]1CC[C@H]2[C@@H]3CCC4=CC(=O)CC[C@]4(C)[C@H]3CC[C@]12C` [progesterone], the “effect on plasma FSH and LH concentration” value in data set [3] (10 mg i.m. in mid- or late-follicular phase) is recorded as “acute increase”. For the same compound, the “women with gonadotrophin surge within one day from first progesterone injection” value in data set [4] (after mifepristone 1 mg per os, progesterone i.m. 2.5 mg bid day 1, 5 mg bid day 2) is given as 5 out of 6.
